The target in experiment [1] is T1, hENPP2 (UniProtKB/SwissProt Q13822) (Homo sapiens (Human), UniProt Q13822). In words: fluorescent hENPP2 biochemical assay, FS-3 as substrate. The conditions noted are these: read-out: FS3-IC50. In short, it runs like this: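 IC50 values come from fluorescence gained as FS-3 is hydrolysed (ex 485, em 520 nm). The reaction, started by adding 0.75 μM FS-3 solution, runs 30 min at 30° C after a 30 min room-temperature preincubation of compound with enzyme. Buffer: Tris-HCl pH 8.0 with NaCl, KCl, MgCl2, CaCl2 and 0.1% BSA.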

Experiment [2] concerns the target T1, hENPP2. As to the kind of experiment: hENPP2 biochemical assay, LPC as substrate. The conditions noted are these: LPC (palmitoyl 16:0) as substrate. In short, it runs like this: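 Human ENPP2 in 50 mM Tris-HCl pH 8.5, 500 mM NaCl, 5 mM KCl, 10 mM CaCl2, 0.1% fatty-acid-free BSA, reacted 30 min at 37 °C with LPC 16:0 (150 µM solution added 1:1). Released choline measured via choline oxidase/peroxidase/TOOS/4-aminoantipyrine quinoneimine dye at 555 nm; IC50 reported.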

Data on ten compounds can be found in patent US9670204B2, “Compounds and pharmaceutical compositions thereof for the treatment of inflammatory disorders” (Galapagos NV, priority 2013, dated 2017).

A word on the IC50: it is the point on the concentration scale where inhibition reaches its midpoint.

Molecules are shown by their SMILES.

Consider `CCc1nc2ccc(N3CCN(C(=O)OC(C)(C)C)CC3=O)cn2c1N(C)c1nc(-c2ccc(F)cc2)cs1` [Compound 62, 4-(2-Ethyl-3-{[4-(4-fluoro-phenyl)-thiazol-2-yl]-methyl-amino}-imidazo[1,2-a]pyridin-6-yl)-3-oxo-piperazine-1-carboxylic acid tert-butyl est], for which the IC50 at hENPP2 [1] was 0.01 to 100 nM; against hENPP2 [2], greater than 1000 nM.

Regarding `CCc1nc2ccc(N3CCN(S(=O)(=O)CCCN4CCCC4)CC3)cn2c1N(C)c1nc(-c2ccc(F)cc2)cs1` [Compound 57, N-(2-ethyl-6-(4-(3-(pyrrolidin-1-yl)propylsulfonyl)piperazin-1-yl)imidazo [1,2-a]pyridin-3-yl)-4-(4-fluorophenyl)-N-methylthiazol-2-amine], the values for the IC50 on hENPP2 [1] and at hENPP2 [2] were 0.01 to 100 nM and greater than 1000 nM, respectively.

Turning to `CCc1nc2ccc(N3CCN(CC(=O)O)CC3)cn2c1N(C)c1nc(-c2ccc(F)cc2)cs1` [Compound 42, 2-(4-(2-ethyl-3-((4-(4-fluorophenyl)thiazol-2-yl)(methyl)amino)imidazo[1,2-a]pyridin-6-yl)piperazin-1-yl)acetic acid], the IC50 is 0.01 to 100 nM on hENPP2 [1] and greater than 1000 nM against hENPP2 [2].

For `[2H]c1sc(N(c2c(CC)nc3ccc(C4CCN(S(C)(=O)=O)CC4)cn23)C([2H])([2H])[2H])nc1-c1ccc(F)cc1` [Compound 103, 4-(4-fluorophenyl)-N-(2-ethyl-6-(1-(methylsulfonyl)piperidin-4-yl)imidazo [1,2-a]pyridin-3-yl)-N-(d3-methyl)-(d-thiazol-2)-amine], the IC50 on hENPP2 [1] was in the range of 0.01 to 100 nM; on hENPP2 [2] it was 100 to 500 nM.

As to `CCc1nc2ccc(C3CCN(S(=O)(=O)CCCOC(C)=O)CC3)cn2c1N(C)c1nc(-c2ccc(F)cc2)cs1` [Compound 93, 3-(4-(2-ethyl-3-((4-(4-fluorophenyl)thiazol-2-yl)(methyl)amino)imidazo[1,2-a]pyridin-6-yl)piperidin-1-ylsulfonyl)propyl acetate], the IC50 on hENPP2 [1] was in the range of 0.01 to 100 nM; against hENPP2 [2], 100 to 500 nM.

For `CCOC(=O)CN1CCC(c2ccc3nc(CC)c(N(C)c4nc(-c5ccc(F)cc5)cs4)n3c2)CC1` [Compound 109, ethyl 2-(4-(2-ethyl-3-((4-(4-fluorophenyl)thiazol-2-yl)(methyl)amino)imidazo[1,2-a]pyridin-6-yl)piperidin-1-yl)acetate], the IC50 on hENPP2 [1] was in the range of 0.01 to 100 nM; on hENPP2 [2] it was 100 to 500 nM.

`CCc1nc2ccc(C3CCN(C(=O)CN4CC(O)C4)CC3)cn2c1N(C)c1nc(-c2ccc(F)cc2)cs1` [Compound 128, 1-(4-(2-ethyl-3-((4-(4-fluorophenyl)thiazol-2-yl)(methyl)amino)imidazo[1,2-a]pyridin-6-yl)piperidin-1-yl)-2-(3-hydroxyazetidin-1-yl)ethanone]: the IC50 on hENPP2 [1] lay within 0.01 to 100 nM; at hENPP2 [2] it was 100 to 500 nM.

For the compound `CCc1nc2ccc(N3CCN(S(=O)(=O)CCCCl)CC3)cn2c1N(C)c1nc(-c2ccc(F)cc2)cs1` [Compound 55, N-(6-(4-(3-chloropropylsulfonyl)piperazin-1-yl)-2-ethylimidazo[1,2-a]pyridin-3-yl)-4-(4-fluorophenyl)-N-methylthiazol-2-amine], the values for the IC50 at hENPP2 [1] and at hENPP2 [2] were 0.01 to 100 nM and greater than 1000 nM, respectively.

With `CCOC(=O)CN1CCN(c2ccc3nc(CC)c(N(C)c4nc(-c5ccc(Cl)cc5)cs4)n3c2)C1=O` [Compound 184, ethyl 2-(3-(3-((4-(4-chlorophenyl)thiazol-2-yl)(methyl)amino)-2-ethylimidazo[1,2-a]pyridin-6-yl)-2-oxoimidazolidin-1-yl)acetate], the IC50 on hENPP2 [1] was 0.01 to 100 nM; on hENPP2 [2] it was greater than 1000 nM.

Regarding `CCc1nc2ccc(C3CCN(CC(=O)N4CC(O)C4)CC3)cn2c1N(C)c1nc(-c2ccc(F)cc2C#N)c(C)s1` [Compound 172, 2-(2-((2-ethyl-6-(1-(2-(3-hydroxyazetidin-1-yl)-2-oxoethyl)piperidin-4-yl)imidazo[1,2-a]pyridin-3-yl)(methyl)amino)-5-methylthiazol-4-yl)-5-fluorobenzonitrile], the results for the IC50 at hENPP2 [1] and at hENPP2 [2] were 0.01 to 100 nM and 100 to 500 nM, respectively.
